Among the data in PubChem BioAssay (NCI) are GI50 and TGI values, retold here.

The structures appear in SMILES notation.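 Five concentrations, 48 hours, 96-well plates. At the GI50, growth is halved. TGI denotes the concentration required for complete inhibition of growth.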

Among the test systems are SF-295 CNS; KM12 colon; RPMI-8226 leukemia; SN12C renal; SNB-19 CNS; OVCAR-5 ovarian; SF-539 CNS; HS 578T breast.
Experiment in all cases: NCI tumour cell line growth inhibition, 48 h

As to `C[C@]12CC[C@@H]3c4ccc(O)cc4CC[C@H]3[C@@H]1CC(Cc1ccccc1)(Cc1ccccc1)C2=O`, the GI50 in the test with SF-295 CNS is 21.4 µM; in the test on KM12 colon it was 11.5 µM; in the test with RPMI-8226 leukemia it was 5.57 µM; in the test with SN12C renal, 14.8 µM; in the test on SNB-19 CNS, 18 µM; in the test with OVCAR-5 ovarian it was 17.2 µM. Also, the results for the GI50 in the test with SF-539 CNS and in the test with HS 578T breast were 18.6 µM and 30.9 µM, respectively. Further, the TGI in the test with SF-295 CNS stood at 49.1 µM; in the test with KM12 colon, 38 µM; in the test with RPMI-8226 leukemia, 23.5 µM; with SN12C renal it was 29.2 µM; with SNB-19 CNS, 34.5 µM; in the test on OVCAR-5 ovarian it was 31.5 µM. Besides, the figures for the TGI in the test on SF-539 CNS and in the test with HS 578T breast were 36.8 µM and over 100 µM, respectively.

Consider `CC[C@H](C)[C@H](NC(=O)c1ncccn1)C(=O)N(C)[C@H](C[C@@H](OC(C)=O)c1nc(C(=O)N[C@@H](Cc2ccccc2)C[C@H](C)C(=O)OC)cs1)C(C)C`, for which the GI50 with SF-295 CNS was 2.11 µM; in the test with KM12 colon, 1.04 µM; in the test on RPMI-8226 leukemia it was 0.793 µM; in the test with SN12C renal it was 2.81 µM; in the test with SNB-19 CNS it was 2.32 µM; with OVCAR-5 ovarian it was 5.07 µM. In addition, the GI50 with SF-539 CNS is 2.53 µM; with HS 578T breast, 1.25 µM. Also, the TGI with SF-295 CNS is 16.7 µM; in the test on KM12 colon, over 25 µM; with RPMI-8226 leukemia, 3.98 µM; with SN12C renal, over 25 µM; in the test with SNB-19 CNS it was over 25 µM; in the test on OVCAR-5 ovarian, over 25 µM. Besides, the TGI is 11.9 µM with SF-539 CNS and over 25 µM with HS 578T breast.

With `COc1cc(OCCCN2CCCC2)ccc1Nc1ncc(Cl)c(Nc2ccccc2P(C)(C)=O)n1`, the GI50 in the test on SF-295 CNS was 2.7 µM; in the test with KM12 colon, 2.63 µM; with RPMI-8226 leukemia it was 2.68 µM; in the test with SN12C renal, 2.52 µM; with SNB-19 CNS, 4.11 µM; in the test on OVCAR-5 ovarian, 1.07 µM. For the same molecule, the GI50 in the test with SF-539 CNS is 3.49 µM; in the test with HS 578T breast, 2.22 µM. For the same molecule, the TGI was determined as 14.2 µM in the test with SF-295 CNS; 11 µM with KM12 colon; 12.2 µM with RPMI-8226 leukemia; 25.5 µM in the test with SN12C renal; 34.3 µM in the test with SNB-19 CNS; 22.5 µM with OVCAR-5 ovarian. Moreover, the values for the TGI in the test on SF-539 CNS and in the test on HS 578T breast were 12.8 µM and 10 µM, respectively.

Consider `CC1(C)N=C(N)N=C(N)N1c1cccc(CCCCc2ccc(Cl)c(S(=O)(=O)F)c2)c1`, for which the GI50 in the test with SF-295 CNS was 2.56 µM; in the test on KM12 colon, 1.79 µM; in the test on RPMI-8226 leukemia it was 4.97 µM; in the test on SN12C renal, 0.967 µM; with SNB-19 CNS, 3.3 µM; with OVCAR-5 ovarian, 6.02 µM. Moreover, the GI50 with SF-539 CNS was 0.504 µM; with HS 578T breast it was 12.6 µM. Further, the TGI in the test with SF-295 CNS was 13.4 µM; in the test on KM12 colon, 15.6 µM; in the test with RPMI-8226 leukemia, 25.1 µM; with SN12C renal, 16.4 µM; in the test on SNB-19 CNS, 18.4 µM; in the test with OVCAR-5 ovarian, 22.1 µM. Moreover, the TGI stood at 13 µM in the test with SF-539 CNS and 35.9 µM in the test on HS 578T breast.

On to `CC1(C)CC[C@]2(C(=O)NCCNCCN)CC[C@]3(C)C(=CC[C@@H]4[C@@]5(C)CCC(=O)C(C)(C)[C@@H]5CC[C@]43C)[C@@H]2C1`, for which the GI50 was 1.83 µM with SF-295 CNS; 1.85 µM in the test on KM12 colon; 2.44 µM in the test with RPMI-8226 leukemia; 1.68 µM in the test on SN12C renal; 1.73 µM in the test on SNB-19 CNS; 1.98 µM in the test on OVCAR-5 ovarian. Also, the GI50 was 1.72 µM with SF-539 CNS and 1.92 µM in the test on HS 578T breast. The TGI with SF-295 CNS stood at 3.39 µM; in the test with KM12 colon, 3.4 µM; with RPMI-8226 leukemia it was 6.26 µM; in the test with SN12C renal, 3.13 µM; with SNB-19 CNS, 3.23 µM; with OVCAR-5 ovarian, 4.56 µM. Moreover, the TGI worked out at 3.11 µM in the test on SF-539 CNS and 4.17 µM with HS 578T breast.

For `O=c1oc2ccc(F)cc2c(=O)n1-c1ccc(I)cc1F`, the GI50 with SF-295 CNS was 1.86 µM; with KM12 colon, 1.92 µM; in the test with RPMI-8226 leukemia, 0.239 µM; with SN12C renal, 0.381 µM; in the test on SNB-19 CNS, 0.409 µM; with OVCAR-5 ovarian it was 3.4 µM. The GI50 with SF-539 CNS is 0.42 µM; with HS 578T breast, 0.352 µM. Also, the TGI in the test with SF-295 CNS is 3.68 µM; in the test with KM12 colon, 5.38 µM; in the test on RPMI-8226 leukemia, 0.745 µM; in the test with SN12C renal it was 5.45 µM; with SNB-19 CNS it was over 54.3 µM; in the test with OVCAR-5 ovarian it was over 54.5 µM. The values for the TGI in the test with SF-539 CNS and with HS 578T breast were 5.17 µM and 2.52 µM, respectively.

Regarding `COc1ccc2c(c1)C(=O)/C(=C/c1ccc(O)cc1)O2`, the GI50 in the test on SF-295 CNS was 23.6 µM; in the test on KM12 colon it was 8.78 µM; in the test on RPMI-8226 leukemia it was 1.55 µM; in the test on SN12C renal, 14.1 µM; in the test on SNB-19 CNS, 43 µM; with OVCAR-5 ovarian, 19.2 µM. Moreover, the figures for the GI50 in the test on SF-539 CNS and in the test on HS 578T breast were 21.6 µM and 28.6 µM, respectively. The TGI is over 66.9 µM in the test with SF-295 CNS; 22.8 µM in the test with KM12 colon; 3.49 µM in the test on RPMI-8226 leukemia; 32 µM in the test on SN12C renal; over 100 µM in the test on SNB-19 CNS; 38.5 µM in the test on OVCAR-5 ovarian. Moreover, the TGI in the test with SF-539 CNS is 56.8 µM; in the test on HS 578T breast, over 86.3 µM.

For `Oc1ccc(Br)cc1C=NC1CCCCC1`, the TGI with SF-295 CNS is over 100 µM; in the test on KM12 colon, over 100 µM; with RPMI-8226 leukemia, over 100 µM; in the test with SN12C renal, 19.5 µM; in the test on SNB-19 CNS, over 100 µM; with OVCAR-5 ovarian it was over 100 µM. Moreover, the TGI in the test on SF-539 CNS and in the test with HS 578T breast was over 100 µM each time.

As to `N#Cc1c(N)c(C(=O)c2ccc3c(c2)OCCO3)n2c1CCCC2`, the GI50 in the test on SF-295 CNS is 2.69 µM; in the test on KM12 colon, 1.37 µM; with RPMI-8226 leukemia it was 3.93 µM; with SN12C renal, 6.13 µM; in the test with SNB-19 CNS, 6.3 µM; in the test with OVCAR-5 ovarian it was 8.82 µM. In addition, the GI50 in the test with SF-539 CNS is 2.38 µM; in the test on HS 578T breast, 3.08 µM. Further, the TGI with SF-295 CNS is over 53.4 µM; in the test on KM12 colon, over 100 µM; in the test with RPMI-8226 leukemia it was over 100 µM; with SN12C renal, over 100 µM; in the test with SNB-19 CNS, over 100 µM; with OVCAR-5 ovarian it was over 100 µM. For the same molecule, the values for the TGI in the test on SF-539 CNS and in the test on HS 578T breast were 7.63 µM and over 74.9 µM, respectively.
